The target of assay [1] is T1, GAL4-hRXRα (Homo sapiens, UniProt P19793).
T1 construct: expressed in transfected cells; host or cells: COS7
Description: GAL4-hRXRα activation, transient transfection luciferase reporter in COS7 cells. Type of assay: cell-based. Particulars: COS7, 100 μM through 0.137 μM. As to the method:
(§1) pCMX-Gal4, pCMX-Gal4-mPPARγ, and pCMX-Gal4-hRXRα were previously described ([Grün et al. 2006]). Transient transfections were performed in COS7 cells as described ([Chamorro-García et al. 2012]). Briefly, COS7 cells were seeded at 15,000 cells per well in 96-well tissue culture plates in 10% calf bovine serum. The following day, cells were transfected in Opti-MEM at ~ 90% confluency. One microgram of CMX-GAL4 effector plasmid was co-transfected with 5 μg tk-(MH100)4-luciferase reporter and 5 μg of CMX-β-galactosidase transfection control plasmids in Opti-MEM® using Lipofectamine® 2000 reagent (Invitrogen™ Life Technologies, Carlsbad, CA, USA), following the manufacturer’s recommended protocol. All chemicals were solvated in dimethyl sulfoxide (DMSO). After overnight incubation, the medium was replaced with Dulbecco’s Modified Eagle Medium (DMEM; HyClone, Logan, UT, USA), 10% resin charcoal stripped fetal bovine serum (FBS) plus ligands at concentrations indicated in the figure legends for an additional 24 hr. DMSO concentration was maintained at 0.05% across all chemical treatments. Cells were lysed and assayed for luciferase and β-galactosidase activity as previously described ([Forman et al. 1995]). All transfections were performed in triplicate and reproduced in multiple experiments. Data are reported as fold induction or reduction over vehicle ([…]) controls ± SEM (standard error of the mean) using standard propagation of error ([Bevington and Robinson 2003]). […] The EC50, EC10, IC50, and IC10 values from NCGC and ToxCast™ are reported from gain AC50 and AC10 values in the ToxCast™ 2014 release ([Filer et al. 2014]).
(§2) Figure 4 ToxPi Chemical Activity on PPARγ and RXRα. The ability of a graded dose series of ToxPi chemicals to activate (A) GAL4-mPPARγ or (B) GAL4-hRXRα was tested in transiently transfected COS7 cells. (A, B) Data points are averages of triplicate transfections (three biological replicates). […] ToxPi chemicals were tested in 3-fold serial dilutions from 100 μM through 0.137 μM, with the final data point being 0.05% DMSO. Data are depicted as fold induction over vehicle (0.05% DMSO) controls ± SEM. (A) Rosiglitazone serves as a positive control activator for GAL4-mPPARγ. (B) LG100268 (2-[1-(3,5,5,8,8-Pentamethyl-5,6,7,8-tetrahydro-2-naphthyl)cyclopropyl]pyridine-5-carboxylic acid) serves as a positive control activator for GAL4-hRXRα. (C) EC50 and EC10 values calculated from A and B are reported and compared to other assays (see Figure S1). ATG, Attagene GAL-PPARγ or GAL-RXRα activation assay; NCGC, GeneBLAzer® GAL-PPARγ or GAL-RXRα activation assays. Triphenyltin was previously published ([Kanayama et al. 2005]).
In general terms: Reporter assays use an easily measured gene product as a stand-in for the process of interest.

Assay [2] has as its system PPARγ. The settings on record: cited from earlier work.
Assay [3] deals with T2, GAL4-mPPARγ (Mus musculus, UniProt P37238).
T2 construct: expressed in transfected cells; host or cells: COS7
Description: GAL4-mPPARγ activation, transient transfection luciferase reporter in COS7 cells. The format is cell-based. Particulars: for Activation of GAL4-PPARγ (text): COS7, 100 μM through 0.137 μM; for Activation COS7 (result in words), ToxPi chemicals: PPARγ or RXRα activation assays (Table 2). As to the method: as §1
(§3) Figure 1 ToxCast™ Chemical Activity on PPARγ. The ability of a graded dose series of ToxCast™ chemicals to (A) activate or (B) antagonize GAL4-mPPARγ was tested in transiently transfected COS7 cells. (A, B) Data points are averages of triplicate transfections (three biological replicates). […] Data are depicted as (A) fold induction or (B) reduction over vehicle (0.05% DMSO) controls ± SEM. (A) ToxCast™ chemicals were tested in 3-fold serial dilutions from 100 μM through 0.137 μM, with the final data point being 0.05% DMSO. Rosiglitazone serves as a positive control activator. (B) ToxCast™ chemicals were tested in 3-fold serial dilutions from 100 μM, in competition with 50 nM rosiglitazone (Rosi). […] (C) EC50, EC10, IC50, and IC10 values calculated from A and B are reported and compared to commercial assays (see Figure S1). Note: ATG, Attagene GAL-PPARγ activation assay; NCGC, GeneBLAzer® agonist (EC values) or antagonist (IC values) assays. Triphenyltin was previously published ([Kanayama et al. 2005]).
as §2

Assay [4] concerns 3T3-L1 preadipocytes. Description: 3T3-L1 adipogenesis assay (lipid accumulation, adipogenic gene expression). The format is cell-based. Particulars: 0.02-20 μM, 5 days after MDI induction. The method, then: 3T3-L1 cells (ATCC) were maintained in high-glucose DMEM supplemented with 10% fetal bovine serum, 2 mM L-glutamine, 50 IU/mL penicillin, and 50 μg/mL streptomycin. A total of 2 × 10^4 cells per well were seeded in 12-well plates. After 48 hr, cells were exposed to the adipogenic cocktail MDI (500 μM isobutylmethylxanthine, 0.25 nM dexamethasone and 5 μg/mL insulin), 8 μg/mL biotin and 8 μg/mL pantothenate for 2 days. Induction media was removed and cells were exposed to test chemicals during 5 days, replacing the media every 2 days. Rosiglitazone (ROSI) and tributyltin (TBT) were used as positive controls at 100 nM and 50 nM final concentrations, respectively. All ToxCast™ chemicals were tested at 0.02, 0.2, 2, and 20 μM, and DMSO concentration was maintained at 0.1% across all treatments. If the chemical was toxic at 20 μM, we repeated the experiment at 10 μM.
Cells were either fixed in 3.7% formaldehyde in phosphate-buffered saline (PBS) for 30 min at room temperature (RT) for lipid quantitation, or homogenized in TriPure (Roche, Mannheim, Germany) for gene expression analysis. For lipid quantitation, fixed cells were washed twice with PBS and maintained in PBS overnight at 4°C to release residual phenol red. Background of cells were measured prior to staining. Cells were stained with 1 μg/mL Nile red (CAS No. 7385-67-3) (to detect lipid accumulation) and 1 μg/mL Hoechst 33342 (ThermoFisher Scientific) (to detect nuclei as a surrogate for cell number) in PBS for 15 min in the dark at RT and washed twice with PBS. […] Background values of Hoechst and Nile red were subtracted from the RFUs after staining and the ratio RFUNile Red:RFUHoechst was calculated. Data are represented as mean ± SEM. Total RNA was isolated using TriPure (Roche) as recommended by the manufacturer. Reverse transcription and quantitative real-time RT-PCR (QPCR) were performed using Transcriptor RT and SYBR® Green Master Mix (Roche). cDNA was quantitated in a LightCycler® 480 System (Roche Diagnostics, Basel, Switzerland) using primer sets listed in Table S4. Each primer set amplified a single band as determined by gel electrophoresis and melting curve analysis. QPCR data were analyzed using the 2^ΔΔCt method ([Livak and Schmittgen 2001]) relative to ribosomal protein 36b4, normalizing to 0.1% DMSO vehicle. Error bars represent the SEM from four to six biological replicates calculated using standard propagation of error ([Bevington and Robinson 2003]).

The target in assay [5] is T2, GAL4-mPPARγ. Kind of assay: GAL4-mPPARγ antagonism in competition with 50 nM rosiglitazone, transiently transfected COS7 cells. The format is cell-based. The method, then:
as §1, §3

The subject of assay [6] is PPARγ. Set-up: method as in Filer et al. 2014. Particulars: ref Filer et al. 2014, cited from earlier work; for AC50: PPARγ, NA = not active, read-out: NCGC Antag. AC50, 2014 Release.
Assay [7] relates to PPARγ. Particulars: ref Filer et al. 2014, cited from earlier work.
Assay [8] relates to Human PPARγ. The settings on record: cited from earlier work.
Assay [9] deals with PPRE. Set-up: method as in Knudsen et al. 2011. The settings on record: ToxCast Phase I 2011 release; NA = not active; ref Knudsen et al. 2011; read-out: ATGC PPRE AC50; cited from earlier work.
Assay [10] concerns LXRα. Set-up: method as in Knudsen et al. 2011. The settings on record: ToxCast Phase I 2011 release; NA = not active; ref Knudsen et al. 2011; read-out: ATGT LXRα AC50; cited from earlier work.
The test system of assay [11] is LXRβ. Set-up: method as in Knudsen et al. 2011. Particulars: ToxCast Phase I 2011 release; NA = not active; ref Knudsen et al. 2011; read-out: ATGT LXRβ AC50; cited from earlier work.
Setting [12] is: PPARγ, NA = not active, ref Filer et al. 2014, read-out: ATG Agonist AC50, 2014 Release.
Where [13] appears, read: PPARγ, NA = not active, ref Knudsen et al. 2011, read-out: ATG Agonist AC50, 2011 Release.

“Also recorded” adds a separate entry of the source. Where two headings read alike, the source gives them in different places.

T2 sequence (P37238 with tags, fused parts or gaps limits assumed): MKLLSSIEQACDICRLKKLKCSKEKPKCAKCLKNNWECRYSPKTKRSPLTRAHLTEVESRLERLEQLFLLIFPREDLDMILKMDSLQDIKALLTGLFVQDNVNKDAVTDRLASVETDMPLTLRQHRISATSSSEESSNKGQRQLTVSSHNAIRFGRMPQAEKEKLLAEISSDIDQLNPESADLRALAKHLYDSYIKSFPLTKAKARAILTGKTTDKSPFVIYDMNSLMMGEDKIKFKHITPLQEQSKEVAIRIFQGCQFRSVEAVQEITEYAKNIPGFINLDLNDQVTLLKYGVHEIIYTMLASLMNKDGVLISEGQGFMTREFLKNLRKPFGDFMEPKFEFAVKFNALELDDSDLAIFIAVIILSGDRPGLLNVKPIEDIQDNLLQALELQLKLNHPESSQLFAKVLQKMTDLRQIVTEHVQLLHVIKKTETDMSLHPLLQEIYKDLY
T1 sequence (P19793 with tags, fused parts or gaps limits assumed): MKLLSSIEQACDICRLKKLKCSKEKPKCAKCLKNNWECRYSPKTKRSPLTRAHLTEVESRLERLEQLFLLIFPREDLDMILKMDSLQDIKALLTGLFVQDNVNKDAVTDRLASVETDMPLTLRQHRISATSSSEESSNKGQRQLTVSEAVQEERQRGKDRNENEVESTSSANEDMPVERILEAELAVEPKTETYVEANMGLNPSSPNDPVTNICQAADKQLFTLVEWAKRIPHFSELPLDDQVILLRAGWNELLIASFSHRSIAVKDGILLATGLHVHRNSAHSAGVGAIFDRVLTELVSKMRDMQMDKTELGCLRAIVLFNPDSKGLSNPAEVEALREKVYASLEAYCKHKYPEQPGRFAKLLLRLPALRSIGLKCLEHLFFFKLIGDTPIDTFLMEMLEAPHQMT

In the case of `O=C(O)COc1ccc(Cl)cc1Cl` [2,4-D, 2,4-dichlorophenoxyacetic acid], the “Activation of RXRα” value in assay [1] is “inactive”.
For orientation: IC50 means the midpoint of a concentration-inhibition curve. As to `CCOCN(C(=O)CCl)c1c(C)cccc1CC` [Acetochlor], the AC50 in assay [2] (setting [12]) was 1.5 µM; in assay [2] (setting [13]) it was 1.7 µM; in assay [5] (Activation AC50 (PPARγ antagonists), Cos-7 transient transfection, competition with 50 nM rosiglitazone), 46.7 µM; in assay [6], 4.5 µM. The “Activation of GAL4-PPARγ (text)” value in [3] is “did not activate PPARγ”. Besides, in assay [4], the “Adipogenesis 3T3-L1 (result in words)” value is reported as “Negative”. Besides, the “Antagonism of PPARγ” value in assay [5] (COS7, competition against 50 nM rosiglitazone) is “weak antagonists”. In addition, the IC50 in assay [5] (COS7, in competition with 50 nM rosiglitazone) is 46.7 µM; in assay [6] (read-out: PPARγ antagonists: IC50, NCGC, gain AC50, ToxCast 2014 release) it was 4.5 µM. Besides, in [5] (COS7, in competition with 50 nM rosiglitazone, computed from IC50), the “PPARγ antagonists: IC10, Fig 1B” value amounted to 9.54 µM. Moreover, the “Activation COS7 (result in words): PPARγ antagonist” value in [5] (Cos-7 transient transfection, competition with 50 nM rosiglitazone) is “PPARγ antagonist”. Moreover, in assay [6] (AC10, ToxCast 2014 release), the “PPARγ antagonists: IC10, NCGC” value was 0.42 µM.
Consider `CCNc1nc(Cl)nc(NC(C)C)n1` [Atrazine], for which the AC50 was 15.2 µM in [2] (ToxCast 2014 release, ref Filer et al. 2014, read-out: Attagene AC50 (panel A, w/o Z-Score Correction ranking)); 15.2 µM in assay [2] (ToxCast 2014 release, ref Filer et al. 2014, read-out: Attagene AC50 (panel B, with Z-Score Correction ranking)); 0.2 µM in assay [7] (ToxCast 2014 release, read-out: Tox21/NCGC AC50 (panel A)); 0.2 µM in [7] (ToxCast 2014 release, read-out: Tox21/NCGC AC50 (panel B)); 0.3 µM in assay [8] (direct binding, ToxCast 2014 release, ref Filer et al. 2014, read-out: NovaScreen AC50 (panel A)); 0.3 µM in [8] (direct binding, ToxCast 2014 release, ref Filer et al. 2014, read-out: NovaScreen AC50 (panel B)). For the same compound, the “Activation of GAL4-PPARγ (text)” value in [3] was “inactive”. Moreover, the “Activation of RXRα” value in assay [1] is “inactive”.
Take `N#Cc1c(Cl)c(Cl)c(Cl)c(C#N)c1Cl` [Chlorothalonil]: the “ATG Agonist AC50, 2011 Release” value in [2] (PPARγ, NA = not active, ref Knudsen et al. 2011) is given as “negative”. Besides, the AC50 in assay [7] (PPARγ, NA = not active, read-out: NCGC Agonist AC50, 2014 Release) was 82.8 µM; in assay [6], 0.9 µM; in assay [8] (PPARγ direct binding, NA = not active, ref Filer et al. 2014, read-out: NVS Agonist AC50, 2014 Release), 0.46 µM; in [8] (PPARγ direct binding, NA = not active, ref Knudsen et al. 2011, read-out: NVS Agonist AC50, 2011 Release), 0.6 µM. In addition, in assay [3], the “Activation COS7 (result in words), ToxCast PPARγ list” value is reported as “Inactive”.
In general, EC50 refers to the concentration giving half of the maximal effect. For `CC(C)(C)c1ccc(CSc2cnn(C(C)(C)C)c(=O)c2Cl)cc1` [Pyridaben], the AC50 in [9] was 1.6 µM; in assay [2] (ToxCast Phase I 2011 release, NA = not active, ref Knudsen et al. 2011, read-out: ATGT PPARγ AC50) it was 14 µM; in assay [3], 3 µM. Moreover, the “PPARγ agonists: EC10, ATG” value in assay [2] (AC10, ToxCast 2014 release, ref Filer et al. 2014) was 2.57 µM. The EC50 was 10.1 µM in assay [2] (gain AC50, ToxCast 2014 release, ref Filer et al. 2014, read-out: PPARγ agonists: EC50, ATG) and 2.98 µM in assay [3]. In assay [3], the “Activation of GAL4-PPARγ (text)” value is “activated PPARγ”. Moreover, in [3] (COS7, computed from EC50 in GraphPad Quick Calc), the “PPARγ agonists: EC10, Fig 1A / Fig 4A” value was 0.53 µM. For the same compound, the “Activation COS7 (result in words), ToxPi chemicals” value in assay [3] (Cos-7 transient transfection) was “PPARγ activator”. For the same compound, the “Adipogenesis 3T3-L1 (result in words)” value in [4] was “strongly inhibited adipogenesis; also recorded: Inhibitor”.
In the case of `CCc1nn(C)c(C(=O)NCc2ccc(C(C)(C)C)cc2)c1Cl` [Tebufenpyrad], the AC50 was 0.83 µM in assay [9]; 2.6 µM in assay [2] (setting [12]); 4.9 µM in assay [2] (setting [13]); 0.36 µM in assay [10]; 0.46 µM in assay [11]; 23.1 µM in assay [6]. Also, the “Activation COS7 (result in words), ToxCast PPARγ list” value in assay [3] (Cos-7 transient transfection, PPARγ activation or antagonism assays (Table 1, Table S6)) is on record as “Inactive”. In assay [3] (Cos-7 transient transfection), the “Activation COS7 (result in words), ToxPi chemicals” value was “Inactive”. For the same compound, in assay [4], the “Adipogenesis 3T3-L1 (result in words)” value is “Negative”.

Source of the values: PMC4977052, “On the Utility of ToxCast™ and ToxPi as Methods for Identifying New Obesogens” (Environmental Health Perspectives, 2016).
